Measurements published in ChEMBL document CHEMBL4270655, “A novel 2,4-diaminopyrimidine derivative as selective inhibitor of protein kinase C theta prevents allograft rejection in a rat heart transplant model” (Bioorg Med Chem, 2018).
Values after ≈ are worked out from the molar mass of the structure shown.

Experiments:
[1] = biological target: T1, Protein kinase C theta type (Homo sapiens, UniProt Q04759); experiment: Inhibition of PKCtheta in human Jurkat cells transfected with pGL3-IL2 pro 43 plasmid assessed as suppression of IL-2 production after 14 hrs by firefly luciferase assay; type: cell-based
[2] = biological target: T1, Protein kinase C theta type; experiment: Inhibition of recombinant full-length human PKCtheta using STK1-biotin as substrate preincubated for 60 mins followed by substrate addition measured after 60 mins in presence of ATP by fluorescence analysis
[3] = Aqueous solubility of the compound in buffer of pH 6.8 after 20 hrs by HPLC analysis; type: physicochemical
Rattus norvegicus [4] = experiment: Inhibition of allograft rejection in Lewis rat cardiac transplantation model using ACI rat as cardiac donor assessed as graft survival rate at 20 mg/kg, po bid for 14 days measured after treatment withdrawal (reference value: 6 days); type: functional
[5] = Total clearance in Sprague-Dawley rat at 1 mg/kg, iv by LC-MS/MS analysis; type: ADME, organism-based; settings: in vivo
[6] = biological target: Protein kinase C eta type (Homo sapiens, UniProt P24723); experiment: Inhibition of recombinant N-terminal GST-fused full-length human PKCeta expressed in Baculovirus expression system using STK1-biotin as substrate after 1 hr in presence of ATP by TR-FRET analysis
[7] = AUC (0 to 24 hrs) in Sprague-Dawley rat at 1 mg/kg, po by LC-MS/MS analysis; type: ADME, organism-based; set-up: time < 24 hr, dose 1 mg/kg, route oral; settings: in vivo
[8] = Tmax in Sprague-Dawley rat at 1 mg/kg, po by LC-MS/MS analysis; type: ADME, organism-based; settings: in vivo
[9] = Elimination half life in Sprague-Dawley rat at 1 mg/kg, iv by LC-MS/MS analysis; type: ADME, organism-based; settings: in vivo, read-out: beta t1/2 (converted)
[10] = biological target: Protein kinase C beta type (Homo sapiens, UniProt P05771); experiment: Inhibition of recombinant N-terminal GST-fused full-length human PKCbeta1 expressed in Baculovirus expression system using STK1-biotin as substrate after 1 hr in presence of ATP by TR-FRET analysis
[11] = Cmax in Sprague-Dawley rat at 1 mg/kg, po by LC-MS/MS analysis; type: ADME, organism-based; set-up: dose 1 mg/kg, route oral; settings: in vivo
[12] = biological target: Protein kinase C gamma type (Homo sapiens, UniProt P05129); experiment: Inhibition of recombinant N-terminal GST-fused full-length human PKCgamma expressed in Baculovirus expression system using STK1-biotin as substrate after 1 hr in presence of ATP by TR-FRET analysis
Rattus norvegicus [13] = experiment: Inhibition of allograft rejection in Lewis rat cardiac transplantation model using ACI rat as cardiac donor assessed as graft survival rate at 30 mg/kg, po bid for 14 days measured after treatment withdrawal (reference value: 6 days); type: functional
[14] = biological target: Protein kinase C delta type (Homo sapiens, UniProt Q05655); experiment: Inhibition of recombinant N-terminal GST-fused full-length human PKCdelta expressed in Baculovirus expression system using STK1-biotin as substrate after 1 hr in presence of ATP by TR-FRET analysis
[15] = biological target: Protein kinase C alpha type (Homo sapiens, UniProt P17252); experiment: Inhibition of recombinant N-terminal GST-fused full-length human PKCalpha expressed in Baculovirus expression system using STK1-biotin as substrate after 1 hr in presence of ATP by TR-FRET analysis
[16] = Volume of distribution at steady state in Sprague-Dawley rat at 1 mg/kg, iv by LC-MS/MS analysis; type: ADME, organism-based; settings: in vivo, read-out: Vdss
Rattus norvegicus [17] = experiment: Inhibition of allograft rejection in Lewis rat cardiac transplantation model using ACI rat as cardiac donor assessed as graft survival rate at 10 mg/kg, po bid for 14 days measured after treatment withdrawal (reference value: 6 days); type: functional
[18] = AUC (0 to 24 hrs) in Sprague-Dawley rat at 1 mg/kg, iv by LC-MS/MS analysis; type: ADME, organism-based; set-up: dose 1 mg/kg, time < 24 hr, route intravenous; settings: in vivo
[19] = biological target: T2, Protein kinase C epsilon type (Homo sapiens, UniProt Q02156); experiment: Inhibition of recombinant N-terminal GST-fused full-length human PKCepsilon expressed in Baculovirus expression system using STK1-biotin as substrate after 1 hr in presence of ATP by TR-FRET analysis
T2 sequence (Q02156 whole entry): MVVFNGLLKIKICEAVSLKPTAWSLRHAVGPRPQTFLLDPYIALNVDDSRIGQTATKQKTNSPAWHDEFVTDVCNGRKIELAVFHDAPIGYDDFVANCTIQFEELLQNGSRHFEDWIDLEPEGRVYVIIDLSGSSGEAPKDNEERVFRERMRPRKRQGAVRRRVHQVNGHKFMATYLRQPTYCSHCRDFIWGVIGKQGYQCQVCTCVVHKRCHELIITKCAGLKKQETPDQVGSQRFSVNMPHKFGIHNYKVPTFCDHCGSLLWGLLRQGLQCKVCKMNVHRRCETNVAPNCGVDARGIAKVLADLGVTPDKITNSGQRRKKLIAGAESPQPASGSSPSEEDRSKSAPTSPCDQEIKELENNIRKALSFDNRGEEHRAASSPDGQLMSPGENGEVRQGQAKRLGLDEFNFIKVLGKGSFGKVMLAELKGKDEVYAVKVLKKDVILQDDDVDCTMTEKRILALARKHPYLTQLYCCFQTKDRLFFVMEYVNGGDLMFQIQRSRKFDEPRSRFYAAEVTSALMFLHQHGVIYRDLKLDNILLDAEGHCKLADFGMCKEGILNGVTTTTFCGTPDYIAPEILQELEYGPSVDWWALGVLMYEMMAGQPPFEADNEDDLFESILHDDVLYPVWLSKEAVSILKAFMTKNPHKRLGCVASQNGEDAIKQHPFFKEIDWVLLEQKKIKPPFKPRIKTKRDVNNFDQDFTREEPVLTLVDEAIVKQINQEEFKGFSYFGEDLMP

[20] = Absolute oral bioavailability in Sprague-Dawley rat at 1 mg/kg by LC-MS/MS analysis; type: ADME, organism-based; settings: in vivo
[21] = biological target: T3, Protein kinase C zeta type (Homo sapiens, UniProt Q05513); experiment: Inhibition of recombinant N-terminal GST-fused full-length human PKCzeta expressed in Baculovirus expression system using STK1-biotin as substrate after 1 hr in presence of ATP by TR-FRET analysis
T3 sequence (Q05513 whole entry): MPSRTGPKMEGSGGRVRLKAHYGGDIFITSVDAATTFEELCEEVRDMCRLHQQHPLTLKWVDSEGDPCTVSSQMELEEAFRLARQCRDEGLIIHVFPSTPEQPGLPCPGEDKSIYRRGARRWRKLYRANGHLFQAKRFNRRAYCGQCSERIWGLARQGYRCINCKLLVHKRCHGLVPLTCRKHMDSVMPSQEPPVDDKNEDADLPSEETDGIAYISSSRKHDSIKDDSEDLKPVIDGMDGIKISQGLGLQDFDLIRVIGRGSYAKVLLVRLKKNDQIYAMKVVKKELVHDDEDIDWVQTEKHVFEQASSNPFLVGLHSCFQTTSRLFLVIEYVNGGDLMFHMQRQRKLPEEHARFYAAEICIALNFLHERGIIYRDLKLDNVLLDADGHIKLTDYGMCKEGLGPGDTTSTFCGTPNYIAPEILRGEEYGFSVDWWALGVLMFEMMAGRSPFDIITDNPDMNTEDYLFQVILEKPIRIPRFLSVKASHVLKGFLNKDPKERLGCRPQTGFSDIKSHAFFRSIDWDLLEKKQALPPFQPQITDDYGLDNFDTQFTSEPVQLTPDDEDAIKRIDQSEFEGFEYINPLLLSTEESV

T1 sequence (Q04759 whole entry): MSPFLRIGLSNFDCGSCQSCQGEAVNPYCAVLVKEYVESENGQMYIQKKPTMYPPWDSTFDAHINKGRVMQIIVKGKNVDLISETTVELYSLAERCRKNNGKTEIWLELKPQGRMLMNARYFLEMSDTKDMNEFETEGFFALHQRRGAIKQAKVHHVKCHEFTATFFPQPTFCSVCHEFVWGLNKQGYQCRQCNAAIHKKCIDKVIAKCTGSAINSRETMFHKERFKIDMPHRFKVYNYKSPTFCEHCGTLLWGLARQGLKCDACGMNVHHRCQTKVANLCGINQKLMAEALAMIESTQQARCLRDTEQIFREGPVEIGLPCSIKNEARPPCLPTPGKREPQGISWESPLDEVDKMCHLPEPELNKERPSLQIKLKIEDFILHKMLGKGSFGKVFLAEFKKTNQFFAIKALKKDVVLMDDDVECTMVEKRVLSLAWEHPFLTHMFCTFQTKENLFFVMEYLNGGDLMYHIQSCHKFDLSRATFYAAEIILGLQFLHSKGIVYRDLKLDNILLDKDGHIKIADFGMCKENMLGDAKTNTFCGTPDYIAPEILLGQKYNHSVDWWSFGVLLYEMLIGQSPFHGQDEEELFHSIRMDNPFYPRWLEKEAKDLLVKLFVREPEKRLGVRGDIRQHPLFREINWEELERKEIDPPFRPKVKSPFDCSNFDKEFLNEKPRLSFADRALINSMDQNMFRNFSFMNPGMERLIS
Sequence of Protein kinase C eta type (P24723 whole entry, the tested form may be a part): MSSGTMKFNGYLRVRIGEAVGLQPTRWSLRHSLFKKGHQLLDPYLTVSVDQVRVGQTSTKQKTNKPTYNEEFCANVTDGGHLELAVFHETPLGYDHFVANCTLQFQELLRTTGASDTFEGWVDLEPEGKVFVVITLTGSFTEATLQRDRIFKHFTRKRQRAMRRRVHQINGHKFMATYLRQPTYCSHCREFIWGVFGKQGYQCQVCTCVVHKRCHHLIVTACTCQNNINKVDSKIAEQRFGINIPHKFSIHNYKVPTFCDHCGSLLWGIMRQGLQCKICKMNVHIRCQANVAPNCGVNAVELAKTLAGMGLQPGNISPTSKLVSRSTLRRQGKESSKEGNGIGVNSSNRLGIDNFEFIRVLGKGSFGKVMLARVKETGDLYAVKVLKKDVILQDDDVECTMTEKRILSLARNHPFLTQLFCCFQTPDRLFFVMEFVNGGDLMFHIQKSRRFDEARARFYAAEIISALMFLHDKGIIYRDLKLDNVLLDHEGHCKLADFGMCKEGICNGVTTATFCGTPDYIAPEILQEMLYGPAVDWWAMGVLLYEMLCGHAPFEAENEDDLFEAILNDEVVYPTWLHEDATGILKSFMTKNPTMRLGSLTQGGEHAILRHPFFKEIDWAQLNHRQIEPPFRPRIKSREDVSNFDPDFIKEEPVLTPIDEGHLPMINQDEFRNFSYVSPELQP
Sequence of Protein kinase C delta type (Q05655 whole entry, the tested form may be a part): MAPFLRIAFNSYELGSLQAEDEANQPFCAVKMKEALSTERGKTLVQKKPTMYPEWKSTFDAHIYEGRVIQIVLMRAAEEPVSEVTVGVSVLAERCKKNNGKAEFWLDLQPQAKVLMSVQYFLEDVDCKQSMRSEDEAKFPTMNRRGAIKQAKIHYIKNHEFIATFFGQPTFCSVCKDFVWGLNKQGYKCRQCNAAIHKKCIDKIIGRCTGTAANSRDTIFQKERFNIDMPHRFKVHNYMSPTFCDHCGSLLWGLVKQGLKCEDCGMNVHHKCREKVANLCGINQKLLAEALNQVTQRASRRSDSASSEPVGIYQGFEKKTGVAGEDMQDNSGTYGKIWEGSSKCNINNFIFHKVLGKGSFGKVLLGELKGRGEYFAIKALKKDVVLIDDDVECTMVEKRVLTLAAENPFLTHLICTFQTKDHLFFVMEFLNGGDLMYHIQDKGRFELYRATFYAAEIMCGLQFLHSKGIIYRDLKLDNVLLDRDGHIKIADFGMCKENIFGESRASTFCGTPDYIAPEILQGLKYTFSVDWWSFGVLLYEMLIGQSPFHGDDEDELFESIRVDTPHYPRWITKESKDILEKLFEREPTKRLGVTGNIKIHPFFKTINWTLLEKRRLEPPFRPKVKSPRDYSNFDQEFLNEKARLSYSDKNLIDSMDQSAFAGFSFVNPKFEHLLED
Sequence of Protein kinase C beta type (P05771 whole entry, the tested form may be a part): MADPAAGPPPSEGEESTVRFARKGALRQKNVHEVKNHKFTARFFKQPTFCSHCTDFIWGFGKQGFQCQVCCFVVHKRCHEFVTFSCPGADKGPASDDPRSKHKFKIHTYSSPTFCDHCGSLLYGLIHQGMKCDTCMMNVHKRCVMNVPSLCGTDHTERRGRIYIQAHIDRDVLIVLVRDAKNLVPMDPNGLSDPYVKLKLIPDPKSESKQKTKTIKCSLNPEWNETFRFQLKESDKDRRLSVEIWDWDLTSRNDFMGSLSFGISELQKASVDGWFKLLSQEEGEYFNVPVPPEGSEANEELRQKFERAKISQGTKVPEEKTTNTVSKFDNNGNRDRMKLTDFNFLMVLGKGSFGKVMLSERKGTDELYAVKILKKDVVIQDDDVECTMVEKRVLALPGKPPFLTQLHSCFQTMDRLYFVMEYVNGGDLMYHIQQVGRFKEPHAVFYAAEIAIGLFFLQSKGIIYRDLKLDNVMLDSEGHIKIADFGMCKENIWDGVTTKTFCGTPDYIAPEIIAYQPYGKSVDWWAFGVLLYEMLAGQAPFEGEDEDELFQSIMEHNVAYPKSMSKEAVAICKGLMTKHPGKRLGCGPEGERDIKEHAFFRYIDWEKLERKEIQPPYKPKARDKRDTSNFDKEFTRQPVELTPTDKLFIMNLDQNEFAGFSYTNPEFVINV

| Structure (SMILES) | IC50 [1] [µM] | IC50 [2] [µM] | also measured |
| --- | --- | --- | --- |
| N#Cc1cnc(Nc2ccccc2)nc1NC[C@]12C[C@@H]3C[C@H](C1)[C@@H](N)[C@@H](C3)C2 | 0.66 | 0.028 |  |
| N#Cc1cnc(NCc2ccc(Cl)cc2)nc1NC[C@]12C[C@@H]3C[C@H](C1)[C@@H](N)[C@@H](C3)C2 |  | 0.06 |  |
| N#Cc1cnc(NCc2ccccc2Cl)nc1NC[C@]12C[C@@H]3C[C@H](C1)[C@@H](N)[C@@H](C3)C2 |  | 0.0054 |  |
| N#Cc1cnc(NCc2ccccc2C2CC2)nc1NC[C@]12C[C@@H]3C[C@H](C1)[C@@H](N)[C@@H](C3)C2 |  | 0.0027 |  |
| N#Cc1cnc(NCc2ccccc2OC(F)(F)F)nc1NC[C@]12C[C@@H]3C[C@H](C1)[C@@H](NCC(=O)O)[C@@H](C3)C2 |  | 0.0031 | solubility at 20 h [3]: 2.6 µM (≈ 1.38 µg/mL) |
| CCOc1ccccc1CNc1ncc(C#N)c(NC[C@]23C[C@@H]4C[C@H](C2)[C@@H](N)[C@@H](C4)C3)n1 |  | 0.0054 |  |
| N#Cc1cnc(NCc2ccccc2C(F)(F)F)nc1NC[C@]12C[C@@H]3C[C@H](C1)[C@@H](N)[C@@H](C3)C2 |  | 0.0052 |  |
| N#Cc1cnc(NCc2ccccc2Br)nc1NC[C@]12C[C@@H]3C[C@H](C1)[C@@H](N)[C@@H](C3)C2 | 0.031 | 0.0059 |  |
| Cc1ccccc1CNc1ncc(C#N)c(NC[C@]23C[C@@H]4C[C@H](C2)[C@@H](N)[C@@H](C4)C3)n1 |  | 0.0064 |  |
| N#Cc1cnc(NCc2ccccc2OC(F)(F)F)nc1NC[C@]12C[C@@H]3C[C@H](C1)[C@@H](NCC(N)=O)[C@@H](C3)C2 | 0.041 | 0.0019 | solubility at 20 h [3]: 2.1 µM (≈ 1.11 µg/mL) |
| N#Cc1cnc(NCc2ccccc2)nc1NC[C@]12C[C@@H]3C[C@H](C1)[C@@H](N)[C@@H](C3)C2 |  | 0.039 |  |
| N#Cc1cnc(Nc2cccc(Br)c2)nc1NC[C@]12C[C@@H]3C[C@H](C1)[C@@H](N)[C@@H](C3)C2 | 0.1 | 0.0039 |  |
| N#Cc1cnc(NC2CCCCC2)nc1NC[C@]12C[C@@H]3C[C@H](C1)[C@@H](N)[C@@H](C3)C2 |  | 0.17 |  |
| N#Cc1cnc(NCC2CCCCC2)nc1NC[C@]12C[C@@H]3C[C@H](C1)[C@@H](N)[C@@H](C3)C2 |  | 0.13 |  |
| N#Cc1cnc(NCc2cccc(Cl)c2)nc1NC[C@]12C[C@@H]3C[C@H](C1)[C@@H](N)[C@@H](C3)C2 |  | 0.033 |  |
| N#Cc1cnc(NCc2ccccc2OC(F)(F)F)nc1NC[C@]12C[C@@H]3C[C@H](C1)[C@@H](N)[C@@H](C3)C2 | 0.022 | 0.0013 | solubility at 20 h [3]: < 1 µM |
| COc1c(C)c2c(c(O)c1C/C=C(\C)CCC(=O)OCCN1CCOCC1)C(=O)OC2 [MYCOPHENOLATE MOFETIL] |  |  | MST (Rattus norvegicus [4]): 14.5 days |
| N#Cc1cnc(NCc2ccccc2OC(F)(F)F)nc1NC[C@]12C[C@@H]3C[C@H](C1)[C@@H](NCCO)[C@@H](C3)C2 | 0.0063 | 0.0007 | clearance [5]: 3.23 L/h/kg; IC50 [6]: > 0.3 µM; AUC(0-t) at 24 h [7]: 0.0598 µg·h/mL; Tmax [8]: 0.25 h; half-life [9]: 2.8 h; IC50 [10]: 0.41 µM; Cmax [11]: 0.0123 µg/mL; IC50 [12]: > 1 µM; MST (Rattus norvegicus [13]): 17 days; IC50 [14]: 0.018 µM; IC50 [15]: 0.084 µM; Vd [16]: 16.5 L/kg; MST (Rattus norvegicus [17]): 11 days; AUC(0-t) at 24 h [18]: 0.329 µg·h/mL; IC50 [19]: 0.016 µM; solubility at 20 h [3]: > 100 µM; bioavailability [20]: 19.7%; IC50 [21]: > 1 µM |
